Article PMC3602187, “From Design to Screening: A New Antimicrobial Peptide Discovery Pipeline” (PLoS ONE, 2013)

Tested on: Listeria innocua 33090
Test: colony overlay assay of peptide-secreting E. coli clones (library screening and re-test)
Type: cell-based
Design: key: higher activity group (H); equal activity group (E); lower activity group (L)
Conditions: library screening; selected colonies pooled by zone size; peptides identified by 454 sequencing, full-length sequences with minimum 20 reads
Method: For the in vivo production of AMPs, we have employed an E. coli expression system that relies on periplasmic-expression of recombinant peptides in a host cell that lacks the lpo membrane protein, thus releasing the peptides present in the periplasmic space outside the cells. When the producer cells are grown into colonies on a solid substrate, it leads to accumulation of the recombinant peptides around the colony and allows for easy library screening. The screening assay used in this study was a modified version of the standard agar diffusion method as previously described. Library-transformed E. coli colonies are overlaid with a tester strain and incubated overnight to allow for peptide expression and tester strain growth. Next day, the plates are inspected for the formation of clear growth inhibition zones around E. coli colonies, which is an indication of active AMP production by the host colony.
For the construction of Pln-423 mutant library in E. coli, the expression system that consists of a periplasmic-leaky E. coli strain JE5505 and the expression plasmid pFLAG-CTS was employed for direct screening of peptide activities. It should be noted here that this plasmid contains ompA secretion signal sequence and cleavage of this sequence results in a serine residue at the N-terminal of all mature peptides. A total of 1.0×10^5 colonies, approximately 8-fold coverage of the library, were screened against Listeria innocua 33090 in five separate screening experiments. L. innocua was previously deemed as a suitable indicator for pathogenic L. monocytogenes displaying similar bacteriocin sensitivity, therefore it was used as a surrogate strain throughout this study. The selection process involved two criteria; 1) the size of the each inhibition zone was compared to that of wild-type Pln-423 as a correlation to anti-listerial activity level, 2) when several colonies formed inhibition zones that are very similar in size and character, only a few from each group were selected. The colonies were pooled into three groups based on their activities, giving 43 clones in a higher activity group (H), 81 clones in an equal activity group (E), and 241 clones in a lower activity group (L). Their plasmids were extracted from each activity group and analyzed by both Sanger and 454 high-throughput sequencing to identify peptide sequences.
These clones were also re-tested by colony overlay assay to compare their activities to wild-type Pln-423 based on the size of the inhibition zone around each clone (Figure 2-A). Based on this assay, all ten plantaricin mutants formed larger inhibition zones (10.3±0.5 to 11.4±0.3 mm zone diameter) compared to wild-type Pln-423 (6.2±0.2 mm) against L. innocua 33090. Out of those ten, three clones have a single mutation and […] clones have two mutations and the remaining single clone has three mutations. […] Positions like Ser23, Ser27, His28, and Lys36 were commonly mutated with similar amino acids indicating their potential role on higher peptide activity.
The screening method used in this study was a modified version of the standard colony overlay method as previously described. All the chemicals and growth media supplements were obtained from either Sigma-Aldrich or Fisher Scientific unless otherwise stated. Transformed E. coli JE5505 cells were diluted to 3000–5000 cfu (determined empirically prior to screening by plating serial dilutions of E. coli suspensions of a known absorbance and counting the colonies after incubation) in 25 ml LB soft agar (0.8%, 45°C) per screening plate and poured into 150 mm petri dishes. Once the media was solidified, they were overlaid with 10 ml LB soft agar (45°C) and incubated at 37°C for 24 h for host-colony formation. Next day, these plates were re-overlaid with 10 ml TSB soft agar containing 1 mM IPTG and the indicator strain Listeria innocua ATCC 33090 (diluted to OD600 = 0.03). […]

Substance	activity group by size of inhibition zone compared to wild-type Pln-423
KYYGNGVTCGKHSCSVNWGQAFSCIVENLANFGHGKC* [GROUP L-UM-26]	L
KYYGNGVTCGKHSCSVNWGQAFSCLVSNLANFGHGKC* [Pep-2_6772]	L
KYYGNGVTCGKHSCSVNWGQAFSCMVSHLANGGHGKC* [Pep-2_9580]	L
KYYGNGVTCGKHSCSVNWGQAFSCNVSHLANFGHGKC* [Pep-1_45]	L
KYYGNGVTCGKHSCSVNWGQAFSCNVSHLANFGHGVC* [Pep-2_4888]	L and H
KYYGNGVTCGKHSCSVNWGQAFSCRVEHLANFGHGKC* [Pep-2_6013]	L
KYYGNGVTCGKHSCSVNWGQAFSCRVSHLANFGHGKC* [GROUP L-UM-13]	L
KYYGNGVTCGKHSCSVNWGQAFSCSASHLANFGHGKC* [Pep-1_53]	L
KYYGNGVTCGKHSCSVNWGQAFSCSFSHLANFGHGKC* [Pep-1_52]	L
KYYGNGVTCGKHSCSVNWGQAFSCSIHHLANFGHGKC* [Pep-2_5914]	L
KYYGNGVTCGKHSCSVNWGQAFSCSMSHLANFGHGKC* [GROUP L-UM-5]	L
KYYGNGVTCGKHSCSVNWGQAFSCSMSRLANFGHGKC* [Pep-2_6562]	L
KYYGNGVTCGKHSCSVNWGQAFSCSTSHLANFGHGKC* [GROUP E-UM-4]	E
KYYGNGVTCGKHSCSVNWGQAFSCSVAELANFGHGKC* [Pep-2_6350]	H
KYYGNGVTCGKHSCSVNWGQAFSCSVAHFANLGHGKC* [GROUP L-UM-30]	L
KYYGNGVTCGKHSCSVNWGQAFSCSVAHLANFGHGKC* [Pep-1_59]	L
KYYGNGVTCGKHSCSVNWGQAFSCSVCHMANFGHGKC* [Pep-2_7542]	L
KYYGNGVTCGKHSCSVNWGQAFSCSVDHLANFGHGHC* [Pep-2_11750]	H
KYYGNGVTCGKHSCSVNWGQAFSCSVDHLANFGHGKC* [GROUP H-UM-2]	H
KYYGNGVTCGKHSCSVNWGQAFSCSVEHLANFGHAKC* [Pep-2_6071]	E

Substance	activity group by size of inhibition zone compared to wild-type Pln-423
KYYGNGVTCGKHSCSVNWGQAFSCSVEHLANFGHGGC* [Pep-2_6077]	E and H
KYYGNGVTCGKHSCSVNWGQAFSCSVEHLANFGHGHC* [Pep-2_6073]	E
KYYGNGVTCGKHSCSVNWGQAFSCSVEHLANFGHGKC* [Pep-1_56]	E and H
KYYGNGVTCGKHSCSVNWGQAFSCSVEHLANFGHIKC* [Pep-2_6070]	L
KYYGNGVTCGKHSCSVNWGQAFSCSVEHLANFGHNKC* [Pep-2_11318]	H
KYYGNGVTCGKHSCSVNWGQAFSCSVEHLANFGYGKC* [Pep-2_6063]	E
KYYGNGVTCGKHSCSVNWGQAFSCSVFHLANFGHGLC* [Pep-2_12076]	L
KYYGNGVTCGKHSCSVNWGQAFSCSVGVLANFGHMHC* [GROUP L-UM-19]	L
KYYGNGVTCGKHSCSVNWGQAFSCSVHHLANFGHGKC* [Pep-1_55]	L
KYYGNGVTCGKHSCSVNWGQAFSCSVHHLANYGHGKC* [Pep-2_5943]	L
KYYGNGVTCGKHSCSVNWGQAFSCSVHRLANFGHGKC* [Pep-2_5917]	L
KYYGNGVTCGKHSCSVNWGQAFSCSVIALANFGHGKC* [Pep-2_7000]	L
KYYGNGVTCGKHSCSVNWGQAFSCSVIHLANFGHGSC* [Pep-2_11968]	H
KYYGNGVTCGKHSCSVNWGQAFSCSVLHLANFGHGKC* [GROUP L-UM-20]	L
KYYGNGVTCGKHSCSVNWGQAFSCSVMHLANFGHGKC* [GROUP L-UM-16]	L
KYYGNGVTCGKHSCSVNWGQAFSCSVNVLANFGHGKC* [Pep-2_6891]	L
KYYGNGVTCGKHSCSVNWGQAFSCSVRHLANFGHGEC* [Pep-2_11857]	L
KYYGNGVTCGKHSCSVNWGQAFSCSVSALANFGHGRC* [Pep-2_7045]	L
KYYGNGVTCGKHSCSVNWGQAFSCSVSDLANFGHGKC* [Pep-1_62]	L
KYYGNGVTCGKHSCSVNWGQAFSCSVSHFANFGHGKC* [GROUP E-UM-8]	E

Substance	activity group by size of inhibition zone compared to wild-type Pln-423
KYYGNGVTCGKHSCSVNWGQAFSCSVSHLA*FGHGKC* [GROUP L-UM-33]	L
KYYGNGVTCGKHSCSVNWGQAFSCSVSHLAAFGHGSC* [Pep-2_11993]	H
KYYGNGVTCGKHSCSVNWGQAFSCSVSHLAEFGHGKC* [Pep-1_80]	L
KYYGNGVTCGKHSCSVNWGQAFSCSVSHLAKFGHGKC* [Pep-1_81]	L
KYYGNGVTCGKHSCSVNWGQAFSCSVSHLANFGEGKC* [Pep-1_98]	H
KYYGNGVTCGKHSCSVNWGQAFSCSVSHLANFGFGWC* [Pep-2_12334]	L
KYYGNGVTCGKHSCSVNWGQAFSCSVSHLANFGHAKC* [Pep-1_107]	L
KYYGNGVTCGKHSCSVNWGQAFSCSVSHLANFGHDKC* [GROUP E-UM-9]	E
KYYGNGVTCGKHSCSVNWGQAFSCSVSHLANFGHGCC* [GROUP L-UM-31]	L
KYYGNGVTCGKHSCSVNWGQAFSCSVSHLANFGHGEC* [Pep-1_110]	H
KYYGNGVTCGKHSCSVNWGQAFSCSVSHLANFGHGKC* [GROUP E-UM-11]	E
KYYGNGVTCGKHSCSVNWGQAFSCSVSHLANFGHGKC* [GROUP L-UM-27]	L
KYYGNGVTCGKHSCSVNWGQAFSCSVSHLANFGHGLC* [Pep-1_112]	L
KYYGNGVTCGKHSCSVNWGQAFSCSVSHLANFGHGRC* [GROUP L-UM-25]	L
KYYGNGVTCGKHSCSVNWGQAFSCSVSHLANFGHGSC* [Pep-1_111]	L and E
KYYGNGVTCGKHSCSVNWGQAFSCSVSHLANFGHGWC* [Pep-1_114]	L
KYYGNGVTCGKHSCSVNWGQAFSCSVSHLANFGHNWC* [Pep-2_12339]	E
KYYGNGVTCGKHSCSVNWGQAFSCSVSHLANFGHRAC* [Pep-2_11153]	L
KYYGNGVTCGKHSCSVNWGQAFSCSVSHLANFGIGLC* [GROUP L-UM-3]	L
KYYGNGVTCGKHSCSVNWGQAFSCSVSHLANFGKGKC* [GROUP L-UM-11]	L
